Each structure is given as a SMILES string.

The series in a line: Human HepG2 cell viability assay in 384 well format. Also on record: dose 125 nL, time 70.5 hour; cytotoxicity at 70.5 h: concentration not given beside the values. The settings on record: HepG2 cells, read-out: Inhibition. In kind it is toxicity, cell-based.

For the compound `Cc1c(C(=O)NCC(C)C)nnn1-c1cccc2c1CCN(C)C2`, the cytotoxicity at 70.5 h stood at 1.85%. Consider `CC(NC(=O)c1cc(-c2cccc(Cl)c2)no1)C(=O)N1CCCC1` (centres undefined), for which the cytotoxicity at 70.5 h is -10.6%. For the compound `Cc1ccc(OCCC(=O)NC2CCc3nccn3C2)cc1` (centres undefined), the cytotoxicity at 70.5 h amounted to 0.164%. As for `Cc1ccc(OCCC(=O)NC2CCc3nc(C)cn3C2)cc1` (centres undefined), the cytotoxicity at 70.5 h is 2.29%. Take `Cc1cc(NC(=O)C(c2cccc(F)c2)N2CCOCC2)ccn1` (centres undefined): the cytotoxicity at 70.5 h was 13.3%. Consider `Cc1n[nH]c(C2CN(C(=O)c3cc(Cl)c[nH]3)CCO2)n1` (centres undefined), for which the cytotoxicity at 70.5 h is -3.9%.

For `CC(=O)Nc1cccc(OCCNC(=O)N(C)Cc2ccco2)c1`, the cytotoxicity at 70.5 h is 0.512%.

Turning to `Cc1nc(C)n(CC2CCCN(Cc3nnc(-c4ccco4)o3)C2)n1` (centres undefined), the cytotoxicity at 70.5 h is -2.38%.

Take `NC(=O)CCN1CCC(C(=O)c2cc(F)ccc2F)CC1`: the cytotoxicity at 70.5 h worked out at 15%. As for `CC1CCN(CCNC(=O)c2ccccc2N2CCOCC2)CC1`, the cytotoxicity at 70.5 h is -7.45%.

With `O=C(NCCc1ccccn1)NC1CCN(c2ncccn2)CC1`, the cytotoxicity at 70.5 h is -8%. As for `COc1ccc(CN(C)C(=O)CCC(=O)c2cccs2)c(OC)c1OC`, the cytotoxicity at 70.5 h is -3.38%. Next, `COC(=O)C(C)(C)NC(=O)C1CC(=O)N(C2CCCC2)C1` (centres undefined): -9.13%; `COc1ccc(C(=O)Nc2cnn(CC(=O)NC3CCCC3)c2)c(O)c1`: -1.19%; `Cc1cc(C)nc(N2CCN(C(=O)c3cc(Cl)c[nH]3)CC2)n1`: -9.1%.

Regarding `Cc1ccccc1C(=O)Nc1cnn(CC(=O)NC2CCCC2)c1`, the cytotoxicity at 70.5 h was -3.04%. Take `Cc1cc(N2CCN(C(=O)c3cc(Cl)c[nH]3)CC2)nc(N)n1`: the cytotoxicity at 70.5 h is -6.18%.

Take `Cc1nn(C(C)C)c(C)c1NC(=O)c1ccncc1`: the cytotoxicity at 70.5 h was -5.05%.

Take `CCN(CC)c1ccc(NS(=O)(=O)c2cncc(F)c2)cn1`: the cytotoxicity at 70.5 h is -0.536%. Consider `CCCNC(=O)CNc1cc(C(=O)N2CCSCC2)ccc1C`, for which the cytotoxicity at 70.5 h is -6%. Next, `CCSc1ccc(C(=O)Nc2c(C)nn(C(C)C)c2C)cn1`: 14.1%. Consider `Cc1ccc(C(=O)N2CCSCC2)cc1NC(=O)NCCO`, for which the cytotoxicity at 70.5 h was -4.73%. Take `COCCN(C)C(=O)c1ccc(OC)cc1O`: the cytotoxicity at 70.5 h was -2.43%. On to `CS(=O)(=O)c1ccc(OCCNCc2cccc(F)c2)cc1`, for which the cytotoxicity at 70.5 h is -2.08%. Turning to `NC(=O)C1CN(C(=O)Nc2cc(Cl)cc(Cl)c2)CCO1` (centres undefined), the cytotoxicity at 70.5 h was -3.67%. `Cc1ccc(CNCCOc2ccc(S(C)(=O)=O)cc2)cc1`: the cytotoxicity at 70.5 h came to 11%. On to `N#CCSCCCN1CCCN(C(=O)c2ccccc2)CC1`, for which the cytotoxicity at 70.5 h was -8.59%. The result for `CN1CC(C(=O)NC(C)(C)C)CC1=O` (centres undefined) reads -9.06%; that for `COC(=O)C(C)(C)NC(=O)C1CC(=O)N(C)C1` (centres undefined), -7.02%; that for `O=C(CN1CCCCCCC1=O)NCc1ccccn1`, -1.3%.

Consider `Cc1nc(C)c(C(=O)N2CCC(Nc3cccnc3)CC2)s1`, for which the cytotoxicity at 70.5 h is -8.38%.

As to `CN(Cc1nnc(C2CC2)n1C)C1CCN(CCc2cccs2)C1` (centres undefined), the cytotoxicity at 70.5 h was -6.98%. `CN(CCN1CCOCC1)C(=O)CCc1cccc(Cl)c1`: the cytotoxicity at 70.5 h worked out at 20.6%. As for `CSc1ccc(C(CN)N2CCc3sccc3C2)cc1` (centres undefined), the cytotoxicity at 70.5 h was 24.3%. Consider `CN(Cc1ccc(Cl)c(Cl)c1)C(=O)CNC(N)=O`, for which the cytotoxicity at 70.5 h was 0.00328%.

As for `Cc1cc(C(=O)N2CC[C@H]3C[C@H](c4ccncn4)O[C@@H]3C2)no1`, the cytotoxicity at 70.5 h stood at 12.7%. For `CCOCC1CN(Cc2cnn(C)c2)Cc2cnn(C)c21` (centres undefined), the cytotoxicity at 70.5 h was -9.88%. Regarding `O=C(C1CCOCC1)N1CC[C@@H](N2CCOCC2)[C@@H]1Cc1ccccc1`, the cytotoxicity at 70.5 h amounted to 5.57%. Turning to `O=C(c1cscn1)N1CC[C@H]2C[C@@H](c3ccncn3)O[C@@H]2C1`, the cytotoxicity at 70.5 h amounted to 7.77%. `O=C(c1ccnnc1)N1CC[C@H]2C[C@H](c3ccncn3)O[C@@H]2C1`: the cytotoxicity at 70.5 h is 5.3%.

Regarding `CC(=O)N1CCCC2(CCN(C(=O)c3ccc(Cl)c(C(F)(F)F)c3)C2)C1` (centres undefined), the cytotoxicity at 70.5 h is -10.6%. Take `COCc1cnc2n1CCN(C(=O)c1ocnc1C)C2C` (centres undefined): the cytotoxicity at 70.5 h was found to be 10.1%. Next, `Cn1cc(CN2CCOCC3(CCN(C4CCOCC4)C3)C2)cn1` (centres undefined): 6.49%. `O=C(c1ccncc1)N1C[C@@H](OCc2cccnc2)[C@H]2OCCC[C@H]21`: the cytotoxicity at 70.5 h is -10.2%. As for `COCCCNC(=O)c1ccn(-c2ccc3ccccn23)n1`, the cytotoxicity at 70.5 h was -12.6%. As to `Cc1nc(CN2CCO[C@@H]3CNCC[C@@H]3C2)cs1`, the cytotoxicity at 70.5 h was -5.71%.

For the compound `O=C(NCc1ccncc1)C1=NOC2(CCCNC2)C1` (centres undefined), the cytotoxicity at 70.5 h came to 14.2%. The result for `Cc1cccc(CN2CCn3c(COc4ncccn4)nnc3C2)n1` reads 4.18%; that for `Cc1ccc(S(=O)(=O)NCC2COCc3c(C)nnn3C2)cc1F` (centres undefined), 7.81%; that for `Cc1ccc(C(=O)N2CCn3c(COCC4CC4)cnc3C2C)s1` (centres undefined), -4.86%.

For `Cc1occc1C(=O)N1CCn2c(COCC3CC3)cnc2C1C` (centres undefined), the cytotoxicity at 70.5 h was -9.85%. As for `CC1c2ncc(COCC3CC3)n2CCN1C(=O)c1ccn(C)n1` (centres undefined), the cytotoxicity at 70.5 h was -9.47%.

Turning to `CC1c2ncc(COCC3CC3)n2CCN1C(=O)c1ccnn1C` (centres undefined), the cytotoxicity at 70.5 h is -10.2%.

Take `Cc1cc(C(=O)N2CCn3c(COCC4CCCC4)cnc3C2C)on1` (centres undefined): the cytotoxicity at 70.5 h was -15.4%. `CN(C)C(=O)CNC(=O)c1ccn(-c2ccc3ccccn23)n1`: the cytotoxicity at 70.5 h is -8.61%. Regarding `Cc1cccc(N2CC3(CCN(C(=O)NC(C)C)C3)CC2=O)c1` (centres undefined), the cytotoxicity at 70.5 h is -9.16%. Next, `N#Cc1cccc(N2CC3(CCN(C(=O)NC4CC4)C3)CC2=O)c1` (centres undefined): -4.14%; `CC(C)c1nccc([C@@H]2C[C@@H]3CCN(Cc4ccoc4)C[C@H]3O2)n1`: -4.41%; `O=C(NCC1CC1)C1=NOC2(CCN(S(=O)(=O)Cc3ccccc3)C2)C1` (centres undefined): -5.14%.

For the compound `CNC(=O)[C@H]1C[C@@H]2CN(C(=O)NCCc3ccccc3)C[C@H]1O2`, the cytotoxicity at 70.5 h is -12%. On to `CN(C)CCO[C@H]1CN(C(=O)c2ccc(C#N)cc2)[C@@H]2COC[C@H]12`, for which the cytotoxicity at 70.5 h is -11%. On to `O=C(NCc1ccccc1)[C@H]1C[C@@H]2CN(C(=O)NC3CCCC3)C[C@H]1O2`, for which the cytotoxicity at 70.5 h turned out to be 16.8%. Consider `N#Cc1cccc(N2CC3(CCN(C(=O)C4CC=CC4)C3)CC2=O)c1` (centres undefined), for which the cytotoxicity at 70.5 h is -9.81%. `Cc1ccc(S(=O)(=O)N2CCC3(CC(C(=O)NC4CCC4)=NO3)C2)cc1` (centres undefined): the cytotoxicity at 70.5 h is 18.4%. `CC(C)CNC(=O)N1C[C@H]2C[C@H](C(=O)NCc3ccccc3)[C@@H](C1)O2`: the cytotoxicity at 70.5 h amounted to 13.9%. As to `Cc1noc(C)c1C(=O)N1C[C@@H]2CN(Cc3cccnc3)CCO[C@@H]2C1`, the cytotoxicity at 70.5 h was -7.03%.

As to `Cc1nc([C@@H]2C[C@@H]3CCN(C(=O)Cc4cccc(F)c4)C[C@H]3O2)no1`, the cytotoxicity at 70.5 h was -8%. As for `CCOCC1CN(Cc2cnn(C)c2)Cc2nn(CC3CC3)cc21` (centres undefined), the cytotoxicity at 70.5 h is -10.4%.

Consider `Cn1cc(N2CC3(COCCN(Cc4ccccn4)C3)OCC2=O)cn1` (centres undefined), for which the cytotoxicity at 70.5 h is -11.1%. Take `CCS(=O)(=O)N1C[C@@H](OCc2ccccn2)[C@@H]2OCCC[C@@H]21`: the cytotoxicity at 70.5 h was -9.16%. For `Cc1ccc(C(=O)N2CCn3c(COCC4CC4)cnc3C2C)nc1` (centres undefined), the cytotoxicity at 70.5 h was -8.57%. For the compound `O=C(C1CC=CC1)N1C[C@@H](OCc2cccnc2)[C@H]2OCCC[C@H]21`, the cytotoxicity at 70.5 h was determined as 11.2%. Consider `O=C(N1CCCC1)N1C[C@@H](OCc2cccnc2)[C@H]2OCCC[C@H]21`, for which the cytotoxicity at 70.5 h was 12.7%.

Turning to `Cc1nc(CN2CCO[C@@H]3CN(C(=O)CC4CC4)C[C@@H]3C2)cs1`, the cytotoxicity at 70.5 h was -1.45%. For the compound `CN(C)CCNC(=O)c1ccn(-c2ccc3ccccn23)n1`, the cytotoxicity at 70.5 h was -6.93%. Take `O=C(NCCN1CCOCC1)c1ccn(-c2ccc3ccccn23)n1`: the cytotoxicity at 70.5 h was -1.69%. Consider `COCCN1CCc2c(cnc(-c3ccoc3)c2C(=O)O)C1`, for which the cytotoxicity at 70.5 h is -12.1%. Take `Cc1ccc(C(=O)N2CCC3(CC2)COC(COc2cccnc2)C3)o1` (centres undefined): the cytotoxicity at 70.5 h is -7.65%. Next, `c1cc(CN2CCc3c(nnn3CC3CC3)C2COCC2CC2)co1` (centres undefined): -14%; `C1CC(CN2CCc3c(nnn3CC3CC3)C2COCC2CC2)C1` (centres undefined): -8.97%; `O=C(c1ccco1)N1C[C@H]2CCCN(Cc3ccc(F)cc3)[C@H]2C1`: -9.54%. As for `Cc1ccc(CN2C[C@@H]3CCCO[C@@H]3[C@H](N(C)Cc3ccco3)C2)s1`, the cytotoxicity at 70.5 h was -11%. For the compound `Cc1nc(CN2CCO[C@@H]3CN(Cc4ccccn4)CC[C@@H]3C2)cs1`, the cytotoxicity at 70.5 h was -6.11%. As for `Cc1nc(CN2CCO[C@@H]3CN(Cc4ccsc4)C[C@@H]3C2)cs1`, the cytotoxicity at 70.5 h came to 0.892%. Regarding `COCC1c2nnn(CC3CC3)c2CCN1Cc1ccncc1` (centres undefined), the cytotoxicity at 70.5 h is -8.11%. `O=C(c1cccnc1)N1CCC2(CC1)COC(COc1ccccn1)C2` (centres undefined): the cytotoxicity at 70.5 h was -11.7%. The result for `Cn1nnc2c1CCN(Cc1ccncc1)C2COCC1CC1` (centres undefined) reads -9.81%; that for `Cc1ccc(CN2CCC3(CC2)NC(=O)CC3c2ccncc2)cc1C` (centres undefined), -3.31%. For `O=C(c1ccco1)N1C[C@H]2CCCN(Cc3ccncc3)[C@H]2C1`, the cytotoxicity at 70.5 h was -3.44%. `COCC1CC2(CCN(Cc3cccc(C#N)c3)CC2)CN1C(C)C` (centres undefined): the cytotoxicity at 70.5 h was -4.89%.

For `O=C1CO[C@@H]2CN(Cc3ccncc3)C[C@H]2N1Cc1ccncc1`, the cytotoxicity at 70.5 h is -7.94%. For `c1ccc(CN2CCc3nnc(COc4ccccn4)n3CC2)nc1`, the cytotoxicity at 70.5 h stood at 13.9%. For the compound `CN(C)CCOCC1CN(Cc2cccs2)Cc2ccnn2C1` (centres undefined), the cytotoxicity at 70.5 h was -9.15%. On to `CN(Cc1ccncc1)C1COC2(CCN(Cc3ccccn3)CC2)C1` (centres undefined), for which the cytotoxicity at 70.5 h is -7%.
